Data on three compounds can be found in patent US20200138822A1, “TOPICAL COMPOSITIONS COMPRISING PENTOXIFYLLINE AND METHODS OF TREATMENT USING THE SAME” (priority 2018, published 2020).

For series [1] the following is noted: times greater than PTX; cited from earlier work.
For series [2], the system named is oral ulcers of BD patients. In words: Randomized, open-label clinical study: index ulcer healing (ulcer area by digital image processing). The format is in vivo, human. The method, then: (§1) A randomized, open-label, proof-of-concept clinical study was conducted under an FDA Investigational New Drug Application (IND). […] The CLC was administered orally as a pill and dosed as determined by the subject's physician. No less than every 48 hours, subjects' ulcers were photographed and examined using digital image processing to determine ulcer area, over a period of 14 days, which include daily collection of adverse events, ulcer number, and pain scores.
(§2) Inclusion criteria required the recent (<2 days) appearance of a new oral ulcer. Patients on immunosuppressant therapies were excluded from the study.
Patients were contacted daily for 14 consecutive days and were examined in-person no less than every 48 hours except for weekends. On the first day of entry into the study, the largest ulcer was identified and photographed as the “index ulcer”; its location was recorded and it was subsequently photographed at every in-person visit. Photographs were made with a paper ruler showing millimeter graduations lain in the same plane as the ulcer itself. Graphical processing software was used to compute the ulcer area in square millimeters; this software was calibrated from the paper ruler image and required drawing a line around the image of the ulcer margin.
Then, the proportion of patients with undetectable index ulcer (defined as those with an ulcer area of less than 1 mm^2) at day 4 was compared. Lastly, the trend in mean ulcer area over 14 days was compared as well as the results' sensitivity to outliers.

In series [3] the test system is oral ulcers of BD patients. In words: Randomized, open-label clinical study: daily average number of oral ulcers. The format is in vivo, human. The note with it: during the two-week treatment period; mean +/- SD. The method, then: as §1, §2
The total number of oral ulcers were also counted at each in-person visit, and the daily average number of oral ulcers were calculated during the treatment period.

For series [4], the system named is BD patients. The series is described as follows: Randomized, open-label clinical study: adverse events / safety. The note with it: 14-day study. The method, then:
as §1, §2
All adverse events were reviewed in real time by the treating physician investigator.

The mark [5] stands for this setting: Day 2, PTX+CLC n = 18, CLC n = 21.
Setting [6] is: Day 4 clearance, undetectable = ulcer area less than 1 mm^2, n = 18 / n = 21.

Turning to `CC(O)CCCCn1c(=O)c2c(ncn2C)n(C)c1=O` (stereo not shown) [Metabolite 1, 1-[5-hydroxyhexyl]-3,7-dimethylxanthine], the “Plasma levels of metabolite relative to PTX” value in series [1] was “five”.

Regarding `COc1cc2c(c(OC)c1OC)-c1ccc(OC)c(=O)cc1[C@@H](NC(C)=O)CC2` [CLC, colchicine], in series [2] (setting [5]), the “Patients with Index Ulcer Growth - %” value is “(80%)”, the “Patients with Index Ulcer Growth - Number” value is 16, the “Patients with Index Ulcer Shrinkage - %” value is reported as “(19%)” and the “Patients with Index Ulcer Shrinkage - Number” value was found to be 4. The “Patients with Index Ulcer Shrinkage - %” value in series [2] (Day 2, PTX+CLC n = 18, CLC n = 21, listed as CLC-only) is recorded as 19%. In series [2] (Day 4, n = 18 / n = 21), the “Patients with Remaining Ulcers - %” value is given as “(71%)” and the “Patients with Remaining Ulcers - Number” value is 15. For the same compound, in series [2] (setting [6]), the “Patients with Undetectable Ulcers - %” value was “(29%)” and the “Patients with Undetectable Ulcers - Number” value was determined as 6. In addition, the “Patients with Undetectable Ulcers - %” value in series [2] (Day 4 clearance, undetectable = ulcer area less than 1 mm^2, n = 18 / n = 21, listed as CLC-only) is 29%. Moreover, the “Mean index ulcer area by treatment group (trend)” value in series [2] (FIG. 1, over 14 days from day zero) was “first growing then slowly decreasing”. The “Daily average number of oral ulcers” value in series [3] was 1.89+/−1.36. Besides, the Serious adverse events entry in series [4] is on record as “No serious adverse events occurred”. Also, in series [4] (adverse event), the “Dysgeusia - % of patients” value is reported as 0%, the “Dysgeusia - number of patients” value was found to be 0, the “Limited dermal rashes - % of patients” value amounted to 29% and the “Limited dermal rashes - number of patients” value is recorded as 6. Also, in series [4] (adverse event), the “Nausea - % of patients” value came out at 10%, the “Nausea - number of patients” value is 2 and the “Vomiting - number of patients” value is recorded as “none”.

Consider `Cn1cnc2c1c(=O)n(CCCC(=O)O)c(=O)n2C` [Metabolite V, 1-[3-carboxypropyl]-3,7-dimethylxanthine], for which, in series [1], the “Plasma levels of metabolite relative to PTX” value was “eight”.
